# In article PMC4189421, “Induction of Oligodendrocyte Differentiation and In Vitro Myelination by Inhibition of Rho-Associated Kinase” (ASN NEURO, 2014):
# What was measured:
# [1] = test system: rat mixed glial OPCs; assay: Myelin protein expression in rat mixed glia-derived OPCs (qPCR, MBP ELISA); format: cell-based
# Method: Rat postnatal OPCs were obtained as described elsewhere according to the original procedure of [McCarthy and […] (1980)]. In brief, postnatal Day 1 rat pups were sacrificed, and cerebral cortices dissected and mechanically dissociated in medium composed of DMEM, 10% heat inactivated fetal bovine serum, and 5 μg/ml penicillin/streptomycin. Dissociated cells were plated and maintained in 75-cm^2 culture flasks for 10 days, replenishing with fresh media at Days 3 and 7. At Day 10, the flasks were shaken on a heated (37°C) shaker for 1 hr at 110 rpm to separate loosely attached microglial cells. The medium was replenished, and the cells incubated for the remainder of the day. To dislodge OPCs from the astrocyte monolayer, flasks were shaken overnight (210 rpm, 37°C). […] Cells were then plated on PDL-coated tissue culture plastic and treated with test compounds. […] The results are presented as specific mRNA expression relative to either β-actin or β-tubulin, used as internal controls as indicated. OPCs isolated from rat mixed glial cultures are known to mature readily in the absence of mitogens achieving a premyelinating OL stage as determined by the expression of the cell surface sulfatide O4, and the myelin proteins MBP and PLP among others ([Armstrong, 1998]; [Barbarese & Pfeiffer, 1981]; [[…], 1999]; [Jung-[…], Schumacher, Robel, & Baulieu, 1996]; [Konola, Tyler, Yamamura, & Lees, 1991]). They also display marked morphological changes, progressing from bipolar to multibranched cells generating membranous structures, and probably represent a later developmental stage than Nph-OPC. In rat mixed glial OPCs, we measured myelin protein expression at the RNA level by qPCR and MBP production by ELISA (MBL International, Woburn, MA).
# [2] = test system: cerebellar organotypic cultures; assay: Remyelination in lysolecithin-demyelinated cerebellar slices (qPCR of MBP, PLP, MOG); format: cell-based, rat; conditions: 10 µM, 10-day incubation post-lysolecithin, vs 0.1% DMSO
# Method: In brief, after careful dissection to keep the tissue intact, cerebella of postnatal Days 4 to7 wild-type mouse pups were sectioned at 400 -µm thickness using a Leica VT1000S vibratome. […] When the slices were firmly attached, fresh medium was added to cover the tissue, and the cultures were maintained under these conditions for 4 days. […] Treatments with compounds were initiated at this point, and the cultures maintained for 4 to 10 additional days. Demyelination–remyelination was assessed by real-time polymerase chain reaction (PCR).
# Total RNA was isolated from single-cell cultures or tissue explants using Tri-Zol reagent (Gibco). cDNA was generated from 1 to 3 µg of total RNA by Retrotranscriptase II (Gibco) reaction, and the selected transcripts were detected and amplified by quantitative RT-PCR in an Applied Biosystems (Grand Island, NY) 7500 fast qPCR machine, following the manufacturer’s instructions.
# [3] = test system: hPSC-OPCs cocultured with rat dorsal root ganglion neurons; assay: Myelination in hPSC-OPC / rat DRG neuron cocultures (MBP/NF overlap); format: cell-based, human; conditions: compound for first 48 hr, 28 days coculture
# Method: Human pluripotent stem cell-derived OPC (hSC-OPC)/[…] dorsal root ganglion (rDRG) cocultures were carried out as follows: 5,000 hES-OPCs were seeded on top of 14-day-old DRG neuron axons in each well of 96-well black μClear plates (Greiner). The cells were seeded in 100 μl of myelination media (MYL) for each well. Twenty-four hours after seeding, media were gently removed, and a fresh MYL medium that contained the compound of interest at a specific dilution (in 0.1% DMSO) was supplemented to the media (first feeding), and the total volume for each well was 200 μl. For each tested compound dose, four replicates were used. After 48 hr, the media were replenished by removing 100 μl of media, and fresh MYL medium (that contains 0.1% DMSO) was added to the wells. […]
# The ArrayScan VTI HCS reader system (Cellomis, Thermo-scientific) was used for scanning 49 fields for each tested well under 10× objective. […] The four-parameter Hill-Slope curve fittings were generated by GraphPad Prism software using least squares fitting method, and EC50 values were calculated for the three major parameters of oligodendrocyte myelination: number of differentiated oligodendrocytes, areas of myelinated axons in pixels (MBP and NF overlap area), and number of myelinated regions (MBP and NF overlap count). […]
# [4] = test system: MYPT1 phosphorylation in mNph-OPC; assay: MYPT1 phosphorylation (sandwich ELISA, western blot) as ROCK target engagement; conditions: for Decrease of MYPT1 phosphorylation (ELISA): 4-hr mNph-OPC treatment
# Method: Tris-glycine acrylamide-bysacrylamide gradient gel electrophoresis was performed as follows: After washing the cells with ice-cold PBS, protein lysates were made by adding 50 µl of PhosphoSafe extraction reagent (EMD Millipore) supplemented with antiprotease cocktail (cOmplete; Roche, Branford, CT) onto each 100-mm^2 cell culture plate. After detaching the cells with the help of a cell scraper and disrupting cell membranes by sonication, the protein extracts were centrifuged (10,000 g, 10 min, 4℃) and the supernatants separated. Protein content was measured by the BCA protein determination method (Biorad, Hercules, CA), and 30 µg of total protein was mixed with SDS sample buffer (Laemmli) supplemented with 1% β-mercaptoethanol. After heating the samples to 70℃ for 10 min, they were loaded onto 4% to 20% acryl-bysacrylamide gradient gels, and electrophoresis was carried out at 120 volts with constant amperage.
# Resolved proteins were then transferred onto nitrocellulose membranes using the iBlot methodology and device (Life technologies). […] Secondary detection was performed using Li-Cor IRDye secondary anti-mouse and anti-rabbit antibodies, and near-infrared signal was detected by Li-Cor’s Odyssey imaging system.
# We assessed MYPT1 phosphorylation in Nph-OPCs treated for 4 hr with ROCK inhibitors in a dose-response experiment and using a sandwich ELISA as a measuring method (MBL International).
smiles,measurement,setting,value
"C[C@@H](N)[C@H]1CC[C@H](C(=O)Nc2ccncc2)CC1.Cl.Cl [Y0503, trans-4-[(1 R)-1-aminoethyl]-N-4-pyridinylcyclohexanecarboxamide dihydrochloride]","Expression of MBP, PLP, and MOG mRNAs (qPCR)","[1]; 3 days maturation +4 days treatment, concentrations as low as 0.1 µM",significant increase
same,MBP at the protein level (ELISA),[1]; treatments at 24 hr and 72 hr after plating,increased expression
same,"Expression of MBP, PLP, MOG mRNAs in demyelinated cerebellar slices (qPCR)",[2],significant increase
same,Number and length of MBP-positive oligodendrocyte processes colocalized with NF-positive axons,[3],dose-response effect
same,Decrease of MYPT1 phosphorylation (ELISA),[4]; 30 µM,~80%
same,Decrease of MYPT1 phosphorylation (ELISA),[4]; 100 µM,more than 80%
same,Duration of downregulation of MYPT1 phosphorylation (western blot),[4]; control levels again after 24 hr of treatment,over 12 hr
